Test results: doi:10.1101/2022.05.12.491652v1 (biorxiv, 2022)

What was measured:
PfClpQ = biological target: T1, PfClpQ (Plasmodium falciparum, UniProt Q8I5B6); assay: fluorogenic peptide; type: biochemical
T1 sequence (Q8I5B6 38-207): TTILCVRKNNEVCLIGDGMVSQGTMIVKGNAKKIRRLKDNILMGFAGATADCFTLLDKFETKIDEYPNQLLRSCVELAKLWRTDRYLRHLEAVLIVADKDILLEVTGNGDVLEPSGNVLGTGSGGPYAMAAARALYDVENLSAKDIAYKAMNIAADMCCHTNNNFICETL

in vitro = conditions: human, hela cells

| SMILES | Ki (PfClpQ) [µM] | CC50 (in vitro) [µM] |
| --- | --- | --- |
| CCn1nc(-c2ccc(C(=O)OC)cc2)nc2c(=O)n(C)c(=O)nc1-2 [CN172, methyl 4-{1-ethyl-6-methyl-5,7-dioxopyrimido[5,4-e][1,2,4]triazin-3-yl}benzoate] | 0.44 | 9.58 |
| Cn1nc(-c2ccncc2)nc2c(=O)n(C)c(=O)nc1-2 [ICGEB-L1, 1,6-dimethyl-3-(pyridin-4-yl)-1H,5H,6H,7H-pyrimido[5,4-e][1,2,4]triazine-5,7-dione] |  | 8.4 |
| CCn1nc(/C=C/c2ccccc2)[n+]([O-])c2c(=O)n(C)c(=O)nc1-2 [ICGEB-L3, 1-ethyl-6-methyl-5,7-dioxo-3-[(1E)-2-phenylethenyl]-1H,5H,6H,7H-pyrimido[5,4-e][1,2,4]triazin-4-ium-4-olate] |  | 10 |
| CCn1nc(-c2ccc(Cl)cc2)nc2c(=O)n(C)c(=O)nc1-2 [ICGEB-L2, 3-(4-chlorophenyl)-1-ethyl-6-methyl-1H,5H,6H,7H-pyrimido [5,4-e] [1,2,4] triazine-5,7-dione] |  | 9.93 |
